According to patent US8912142B2, “Method of regulating proliferation and differentiation of keratinocyes” (The Medical Research, Infrastructure and Health Services …, priority 2009, dated 2014):
d = 2'-deoxy (DNA); r = 2'-OH (RNA)

Columns and labels:
[1] = test system: primary keratinocytes transfected with IGFBP7 siRNA; test: ERK inhibition, proliferation of IGFBP7-silenced primary keratinocytes; assay type: cell-based, human; conditions: 120 μM for 72 hours, medium refreshed every 24 hours
Experimental: FIG. 17 is a histogram depicting the effect of ERK inhibition on primary keratinocytes proliferation in IFGBP7-silenced cells and control cells. Primary keratinocytes which were transfected with IGFBP7 siRNA were treated with 120 μM PD98059 (ERK inhibitor) for 72 hours, while refreshing the medium every 24 hours. Note that ERK inhibition attenuates cell proliferation induced by IGFBP7 down-regulation (p<0.01).
To further investigate the involvement of ERK in IGFBP7-mediated cell proliferation primary keratinocytes which were transfected with IGFBP7 siRNA were treated with the ERK inhibitor PD98059 (120 μM for 72 hours, while refreshing the medium every 24 hours).

[2] = test system: primary human keratinocytes; test: TUNEL apoptosis assay in primary keratinocytes; assay type: cell-based
Experimental: FIGS. 4A-C depict apoptosis assays in HaCat or primary keratinocyte cells. FIGS. 4A-B—HaCat cells stably expressing IGFBP7-specific (IGFBP7) or control shRNA (Co) (scrambled control), were exposed to 10 ng/μl of recombinant tumor necrosis factor-alpha (TNF-α) (+) or vehicle (−) 24 hours after transfection. Apoptosis was measured using the TUNEL assay (FIG. 4A) or the Annexin V assay (FIG. 4B). FIG. 4C—Primary keratinocytes were transiently transfected with IGFBP7-specific siRNA (IGFBP7) or with scrambled control siRNA (Co) and exposed to 10 ng/μl of recombinant TNF-α (+) or vehicle (−). Apoptotic activity was assessed by the TUNEL assay. All experiments were repeated three times. Results are provided as mean values±SD. […]
(§1) FIGS. 6A-C depict cell viability and proliferation assays of primary keratinocytes which exogenously express IGFBP7. […] FIGS. 6A-B—Cell viability and proliferation were assessed using the MTT (FIG. 6A) and BrDU (FIG. 6B) assays. FIG. 6C—Apoptosis was quantitated by TUNEL assay. […]
Apoptosis was assessed using the TUNEL kit (Roche, Mannheim, Germany) according to the manufacturer's protocol. […] More than 1,000 cells were counted for each slide and examined under a fluorescent microscope Zeiss Axioscope 2 (Carl Zeiss MicroImaging, Inc., Thornwood, N.Y.). […] Differences in apoptotic activity were considered significant at p-values <0.01 calculated using a standard Student's t-test.

IGFBP7 = test: qRT-PCR of IGFBP7 mRNA in organotypic skin equivalents; assay type: cell-based, human
Experimental: RNA was extracted from cultured cells using an RNA extraction kit (Roche Mannheim, Germany). cDNA was synthesized from 500 ng of total RNA using the Reverse-iT first strand synthesis kit (ABgene, Epson, UK) and random hexamers. cDNA PCR amplification was carried out using the SYBR Green JumpStart Taq ReadyMix (Sigma-Aldrich, St Louis, Mo., USA) on a M×3000 p/5 p multifilter system (Stratagene, Cedar Creek, Tex., USA) with gene-specific intron-crossing oligonucleotide pairs listed in Table 2 below. To ensure the specificity of the reaction conditions, at the end of the individual runs, the melting temperature (Tm) of the amplified products was measured to confirm its homogeneity. […] Each sample was analyzed in triplicate. For quantification, standard curves were obtained using serially diluted cDNA amplified in the same real-time PCR run. […] After the quantification procedure, the products were resolved by 2.5% agarose gel electrophoresis to confirm that the reaction had amplified DNA fragments of expected size.
(§2) To confirm the physiological relevance of these findings in keratinocyte monolayers, the present inventors suppressed the expression of IGFBP7 by RNA interference in skin organotypic cultures. […] Punch biopsies were also taken at day 7 for RNA extraction, transcribed to cDNA and analyzed by qRT-PCR for IGFBP7 mRNA expression. […]

[3] = test system: three-dimensional organotypic skin equivalents; test: H&E staining of organotypic skin equivalents; assay type: cell-based, human; conditions: day 14
Experimental: The present inventors used a three-dimensional organotypic cell culture system to model the role of decreased IGFBP7 expression in the pathogenesis of psoriasis (FIGS. 18 and 19). In this model system, keratinocytes are grown at the air liquid interface on a support consisting of collagen and fibroblasts for up to 2 weeks. During this time, keratinocytes fully differentiate, forming a multilayered, cornified epithelium which faithfully replicates most physiological aspects of normal epidermal biology. The present inventors established the conditions necessary to grow such three-dimensional skin equivalents. Histological and immunohistochemical analyses confirmed the existence of a legitimate differentiation program in these cultures. […] At day 12, the stratum corneum was thickened and desquamation, i.e., detachment of cornified keratinocytes, occurred (FIG. 20).
as §2, with “expression. IGFBP7 specific siRNA suppressed IGFBP7 expression to less than 60% of the normal level in skin equivalents as measured at day 7 (data not shown).” for “expression.”

[4] = test system: primary human keratinocytes; test: MTT assay (cell viability) in primary keratinocytes; assay type: cell-based
Experimental: (§3) FIGS. 3A-F depict viability and proliferation assays of keratinocytes. […] Data represent mean values±SD of three independent experiments. Asterisk, p<0.01 compared with control cells. FIG. 3B—HaCat cells stably expressing an IGFBP7-specific shRNA or a control shRNA were assessed using the BrDu assay (stable transfection). Data represent mean values±SD of three independent experiments. Asterisk, p<0.01 compared with control cells. FIGS. 3C and D—KRT6a mRNA and protein levels were assessed by qRT-PCR (FIG. 3C) and immunoblotting (FIG. 3D) in HaCat cells stably expressing an IGFBP7-specific shRNA or a control shRNA. FIGS. 3E and F—Primary keratinocytes were transiently transfected with IGFBP7-specific siRNA (IGFBP7) or with control siRNA (control) and assessed using the MTT assay (FIG. 3E; 24 and 48 hours post transfection) and the BrDu assay (FIG. 3F; 24 hours post transfection). Data represent mean values±SD of three independent experiments (Asterisk, p<0.01 compared with control cells).
as §1

[5] = test system: primary human keratinocytes; test: BrDu incorporation assay (proliferation) in primary keratinocytes; assay type: cell-based
Experimental: as §3, with “Data represent mean values±SD of three independent experiments (Asterisk, p<0.01 compared with control cells).” left out
as §1
The incorporation rate of BrdU was determined by Cell Proliferation ELISA BrdU colorimetric kit (Roche, Mannheim, Germany) according to manufacturer's protocol. Absorbance at 450 nm was measured using an ELISA reader. […]

HaCat cells = test: MTT assay (cell viability) in HaCat cells; assay type: cell-based, human; conditions: siRNA, cultured 24 and 72 hours
Experimental: as §3
The MTT test is based on the selective ability of living cells to reduce the yellow salt MTT (3-(4,5-dimethylthiazolyl-2)-2,5-diphenyltetrazolium bromide) (Sigma, Aldrich St Louis, Mo., USA) to a purple-blue insoluble formazan precipitate. […] The supernatants were collected and then scanned with an ELISA reader Zenyth 200 (Anthos Labtec, Cambridge, UK) at 560 nm.

[6] = test system: human skin grafted onto beige-SCID mice injected with NK/T cells from psoriatic patients; test: Chimeric human-mouse psoriasis model, histology; assay type: in vivo; conditions: intralesional, histology two weeks after the treatment
Experimental: To assess the effect of IGFBP7 on psoriasis, the present inventors used a chimeric mouse model (FIG. 23). The model is based on the use of normal skin from healthy controls that is grafted onto beige-SCID mice. The grafts are then injected with NK/T cells isolated from psoriatic patients (Gilhar et al., 2002).
In the experimental system used herein, two weeks after NK injection (6 weeks after engraftment) 3 groups of mice were treated with intralesional PBS, topical dexamethasone and intralesional IGFBP7. The effect of the treatment was monitored by histology analysis two weeks after the treatment (8 weeks after engraftment).

[7] = test system: primary keratinocyte cells; test: Effect of rIGFBP7 on differentiation of primary keratinocytes; assay type: cell-based, human; conditions: data not shown
Text: To confirm the involvement of IGFBP7 in the regulation of keratinocyte proliferation and differentiation, the present inventors examined the effect of recombinant human IGFBP7 polypeptide (rIGFBP7) on primary keratinocyte cells.

[8] = 1.8 μg/μl rIGFBP7 for 72 hours, then 12 hours in medium lacking rIGFBP7

COc1cccc(-c2cc(=O)c3ccccc3o2)c1N [PD98059]
keratinocyte proliferation induced by IGFBP7 down-regulation [1]: prevented the induction of keratinocyte proliferation

IGFBP7 specific siRNA: siRNA IGFBP7 duplex of SEQ ID NO:32 and SEQ ID NO:33 (Sigma-Proligo) (chain 1 GCUGGUAUCUCCUCUAAGUTT; chain 2 ACUUAGAGGAGAUACCAGCTT; sugars from the 5' end r19 d2, backbone not given here)
TNF-α-induced cell apoptosis (TUNEL assay) ([2]; primary keratinocytes transiently transfected, 10 ng/μl recombinant TNF-α): prevented TNF-α-induced cell apoptosis
duration of the siRNA effect (IGFBP7; organotypic skin model, data not shown): at least 7 days
IGFBP7 expression relative to normal level (IGFBP7; skin equivalents, day 7, data not shown): less than 60%
H&E histological changes [3]: abnormal stratification, absence of granular layer, parakeratosis and marked hyperkeratosis
cell viability (MTT assay) ([4]; primary keratinocytes, 24 and 48 hours post transfection): more viable and proliferative
cell proliferation (BrDu assay) ([5]; primary keratinocytes, 24 hours post transfection): more viable and proliferative
cell viability (MTT assay) (HaCat cells): more viable and proliferative

rIGFBP7: human recombinant IGFBP7 polypeptide (R&D systems Inc. Catalogue No. 1334-B7-025)
keratinocyte apoptosis (TUNEL assay) ([2]; 1.8 μg/μl rIGFBP7 for 72 hours, then 12 hours in medium lacking rIGFBP7, TNF-α-mediated): increase in keratinocyte apoptosis
mice with features of psoriasis on histology [6]: one animal only showed features of psoriasis on histology
mice with full recovery on histology [6]: three mice showed full recovery
mice with partial recovery on histology [6]: one mouse recovered partially (50%)
mononuclear infiltrating cells in the dermis [6]: could still be seen in the dermis albeit in smaller numbers
cell differentiation [7]: lacked significant effect on cell differentiation
viable cell counts (MTT assay) [4, 8]: decrease in viable cell counts
cell proliferation (BrDu assay) [5, 8]: decrease in cell proliferation
